Source: article PMC8073777, “Design, Synthesis, Biological Evaluation and In Silico Studies of Pyrazole-Based NH2-Acyl Oseltamivir Analogues as Potent Neuraminidase Inhibitors” (Pharmaceuticals, 2021)

Biological target: A/H3N2 influenza NA (Influenza A virus (H3N2), UniProt Q91IQ5)
Type: biochemical, A/H3N2 influenza virus (clinical isolate from Hong Kong)
Conditions: 10 µM

Structure (SMILES) | Inhibitory rate against A/H3N2 influenza NA
CCC(CC)O[C@@H]1C=C(C(=O)O)C[C@H](NC(=O)c2cnn(Cc3ccccc3)c2)[C@H]1NC(C)=O [Compound 6a, (3R,4R,5S)-4-acetamido-5-(1-benzyl-1H-pyrazole-4-carboxamido)-3-(pentan-3-yloxy) cyclohex-1-ene-1-carboxylic acid] | 32.02%
CCC(CC)O[C@@H]1C=C(C(=O)O)C[C@H](N)[C@H]1NC(C)=O [OC, oseltamivir carboxylate, reference compound] | 97.46%
CCC(CC)O[C@@H]1C=C(C(=O)O)C[C@H](NC(=O)c2cc(C3CC3)nn2-c2cccc(C)c2)[C@H]1NC(C)=O [Compound 26c, (3R,4R,5S)-4-acetamido-5-(3-cyclopropyl-1-(m-tolyl)-1H-pyrazole-5-carboxamido)-3-(pentan-3-yloxy) cyclohex-1-ene-1-carboxylic acid] | 31.53%
CCC(CC)O[C@@H]1C=C(C(=O)O)C[C@H](NC(=O)c2cc(C3CC3)nn2-c2ccc(Br)cc2)[C@H]1NC(C)=O [Compound 26d, (3R,4R,5S)-4-acetamido-5-(1-(4-bromophenyl)-3-cyclopropyl-1H-pyrazole-5-carboxamido)-3-(pentan-3-yloxy) cyclohex-1-ene-1-carboxylic acid] | 37.17%
CCC(CC)O[C@@H]1C=C(C(=O)O)C[C@H](NC(=O)c2cc(-c3ccc(Cl)cc3)nn2CC2CC2)[C@H]1NC(C)=O [Compound 16a, (3R,4R,5S)-4-acetamido-5-(3-(4-chlorophenyl)-1-(cyclopropylmethyl)-1H-pyrazole-5-carboxamido)-3-(pentan-3-yloxy) cyclohex-1-ene-1-carboxylic acid] | 31.50%
CCC(CC)O[C@@H]1C=C(C(=O)O)C[C@H](NC(=O)c2cc(C3CC3)n(-c3ccccc3C)n2)[C@H]1NC(C)=O [Compound 24b, (3R,4R,5S)-4-acetamido-5-(5-cyclopropyl-1-(o-tolyl)-1H-pyrazole-3-carboxamido)-3-(pentan-3-yloxy) cyclohex-1-ene-1-carboxylic acid] | 60.91%
CCC(CC)O[C@@H]1C=C(C(=O)O)C[C@H](NC(=O)c2cnn(-c3ccccc3C)c2)[C@H]1NC(C)=O [Compound 6h, (3R,4R,5S)-4-acetamido-3-(pentan-3-yloxy)-5-(1-(o-tolyl)-1H-pyrazole-4-carboxamido) cyclohex-1-ene-1-carboxylic acid] | 38.37%
CCC(CC)O[C@@H]1C=C(C(=O)O)C[C@H](NC(=O)c2cc(-c3ccc(Cl)cc3)nn2CC2CCC2)[C@H]1NC(C)=O [Compound 16b, (3R,4R,5S)-4-acetamido-5-(3-(4-chlorophenyl)-1-(cyclobutylmethyl)-1H-pyrazole-5-carboxamido)-3-(pentan-3-yloxy) cyclohex-1-ene-1-carboxylic acid] | 39.81%
CCC(CC)O[C@@H]1C=C(C(=O)O)C[C@H](NC(=O)c2cc(-c3ccc(C(F)(F)F)cc3)n[nH]2)[C@H]1NC(C)=O [Compound 12d, (3R,4R,5S)-4-acetamido-3-(pentan-3-yloxy)-5-(3-(4-(trifluoromethyl)phenyl)-1H-pyrazole-5-carboxamido) cyclohex-1-ene-1-carboxylic acid] | 46.7%
CCC(CC)O[C@@H]1C=C(C(=O)O)C[C@H](NC(=O)c2cc(C3CC3)n(-c3ccc(Br)cc3)n2)[C@H]1NC(C)=O [Compound 24d, (3R,4R,5S)-4-acetamido-5-(1-(4-bromophenyl)-5-cyclopropyl-1H-pyrazole-3-carboxamido)-3-(pentan-3-yloxy) cyclohex-1-ene-1-carboxylic acid] | 42.68%
CCC(CC)O[C@@H]1C=C(C(=O)O)C[C@H](NC(=O)c2cnn(Cc3ccc(C(F)(F)F)cc3)c2)[C@H]1NC(C)=O [Compound 6g, (3R,4R,5S)-4-acetamido-3-(pentan-3-yloxy)-5-(1-(4-(trifluoromethyl)benzyl)-1H-pyrazole-4-carboxamido) cyclohex-1-ene-1-carboxylic acid] | 21.72%
CCC(CC)O[C@@H]1C=C(C(=O)O)C[C@H](NC(=O)c2cnn(-c3ccc(C)cc3)c2)[C@H]1NC(C)=O [Compound 6i, (3R,4R,5S)-4-acetamido-3-(pentan-3-yloxy)-5-(1-(p-tolyl)-1H-pyrazole-4-carboxamido) cyclohex-1-ene-1-carboxylic acid] | 52.31%
CCC(CC)O[C@@H]1C=C(C(=O)O)C[C@H](NC(=O)c2cnn(Cc3cccc(OC)c3)c2)[C@H]1NC(C)=O [Compound 6e, (3R,4R,5S)-4-acetamido-5-(1-(3-methoxybenzyl)-1H-pyrazole-4-carboxamido)-3-(pentan-3-yloxy) cyclohex-1-ene-1-carboxylic acid] | 23.37%
CCC(CC)O[C@@H]1C=C(C(=O)O)C[C@H](NC(=O)c2cc(-c3cccs3)n[nH]2)[C@H]1NC(C)=O [Compound 12f, (3R,4R,5S)-4-acetamido-3-(pentan-3-yloxy)-5-(3-(thiophen-2-yl)-1H-pyrazole-5-carboxamido) cyclohex-1-ene-1-carboxylic acid] | 40.02%
CCC(CC)O[C@@H]1C=C(C(=O)O)C[C@H](NC(=O)c2cnn(Cc3cccc([N+](=O)[O-])c3)c2)[C@H]1NC(C)=O [Compound 6d, (3R,4R,5S)-4-acetamido-5-(1-(3-nitrobenzyl)-1H-pyrazole-4-carboxamido)-3-(pentan-3-yloxy) cyclohex-1-ene-1-carboxylic acid] | 12.26%
CCC(CC)O[C@@H]1C=C(C(=O)O)C[C@H](NC(=O)c2cnn(Cc3ccc(OC)cc3)c2)[C@H]1NC(C)=O [Compound 6f, (3R,4R,5S)-4-acetamido-5-(1-(4-methoxybenzyl)-1H-pyrazole-4-carboxamido)-3-(pentan-3-yloxy) cyclohex-1-ene-1-carboxylic acid] | 26.79%
CCC(CC)O[C@@H]1C=C(C(=O)O)C[C@H](NC(=O)c2cc(-c3ccccc3)n[nH]2)[C@H]1NC(C)=O [Compound 12a, (3R,4R,5S)-4-acetamido-3-(pentan-3-yloxy)-5-(3-phenyl-1H-pyrazole-5-carboxamido) cyclohex-1-ene-1-carboxylic acid] | 42.81%
CCC(CC)O[C@@H]1C=C(C(=O)O)C[C@H](NC(=O)c2cnn(-c3ccc(OC)cc3)c2)[C@H]1NC(C)=O [Compound 6j, (3R,4R,5S)-4-acetamido-5-(1-(4-methoxyphenyl)-1H-pyrazole-4-carboxamido)-3-(pentan-3-yloxy) cyclohex-1-ene-1-carboxylic acid] | 34.15%
CCC(CC)O[C@@H]1C=C(C(=O)O)C[C@H](NC(=O)c2cnn(Cc3ccccc3Cl)c2)[C@H]1NC(C)=O [Compound 6b, (3R,4R,5S)-4-acetamido-5-(1-(2-chlorobenzyl)-1H-pyrazole-4-carboxamido)-3-(pentan-3-yloxy) cyclohex-1-ene-1-carboxylic acid] | 18.88%
